Laboratory results from PMC8708704, “Discovery of New Chemical Tools against Leishmania amazonensis via the MMV Pathogen Box” (Pharmaceuticals, 2021).
Read-outs that look alike come from different tables or passages of the source.

Key:
[1] = test system: Leishmania amazonensis promastigotes; assay: Leishmanicidal activity against promastigotes (alamarBlue assay; screening at 10 µM and IC50); type: cell-based; details: for IC50 / inhibition at 10 µM: 72 h; for IC50: alamarBlue, read-out: Leishmania amazonensis Promastigotes IC50; for inhibition at 10 µM: first screening, read-out: % of inhibition at 10 µM (against L. amazonensis promastigotes); for Selectivity Index (CC50/IC50), promastigotes: macrophage CC50 / promastigote IC50
Description: For the experiments, promastigotes of Leishmania amazonensis strain (MHOM/BR/77/LTB0016) were used; they were maintained in RPMI 1640 medium (Gibco, Massachusetts, USA) at 26 °C. […] Subsequently, the plates were analyzed on an EnSpire multimode plate reader (PerkinElmer, MA, USA) to measure their fluorescence after 72 h. […] To this end, serial dilutions were performed in 96 well plates, and incubated with the parasites for 72 h after adding alamarBlue®. Next, the plates were analyzed on the EnSpire plate reader and the IC50 values were calculated by using SigmaPlot 14.0 (Systat Software Inc., Chicago, IL, USA). Each concentration was tested in duplicate and in three independent experiments for all the compounds.

[2] = test system: Leishmania amazonensis intracellular amastigote; assay: Intracellular amastigote activity (parasite rescue and transformation assay); type: cell-based; details: for IC50: Leishmania amazonensis, Macrophage, 24 h treatment of infected macrophages, rescue 72 h, read-out: Leishmania amazonensis Intracellular Amastigote IC50; for Selectivity Index (CC50/IC50), intracellular amastigote: macrophage CC50 / amastigote IC50
Description: The intracellular amastigote activity was measured by parasite rescue and transformation assay, also performed according to Jain et al. […] The macrophages were placed in a 96 well plate at a density of 2 × 10^5/mL in DMEM and incubated for 5 h. […] After the incubation, the excess promastigotes were washed off and serial dilutions of the compounds were added. After 24 h of incubation, we removed the medium and added 30 μL of Schneider medium with 0.05% SDS to break the macrophages. The plate was shaken for 30 s and a further 180 μL of medium was added to each well. The plates were then incubated at 26 °C for 72 h for the transformation of the rescued amastigote into promastigotes. AlamarBlue® was added and the plates were measured and analyzed as discussed above.

[3] = test system: Leishmania amazonensis promastigotes; assay: ATP levels (CellTiter-Glo); type: cell-based; details: IC90 of the compounds, 24 h
Description: To detect alterations due to the different treatments on the cellular ATP levels, CellTiter-Glo (Promega) was utilized. […] Finally, luminescence was measured on the EnSpire spectrophotometer (Perkin Elmer). The experiment was performed at least three times in duplicate on different days.

[4] = test system: L. amazonensis promastigotes; assay: Phosphatidylserine externalization (annexin V / propidium iodide, Tali); type: cell-based, Leishmania amazonensis; details: IC90, 24 h (Figure 4 legend: 48 h)
From the text: To measure the level of population that experiments phosphatidylserine externalization from the inner to the outer part of the cytoplasmic membrane, an Apoptosis kit for Tali (Invitrogen, Thermo Fisher Scientific, Waltham, MA, USA) was utilized. The kit employs annexin-v, which binds to the external phosphatidylserine, and propidium iodide, that penetrates dead cells, to classify the population of the cells as: alive ([…]), dead (propidium stained), and apoptotic (annexin stained). […] A minimum of three independent experiments were performed for this assay. The cells were then quantified by the image-based cytometer Tali® (Life Technologies, Thermo Fisher Scientific, Waltham, MA, USA).

[5] = test system: CYP2C9; design: method as in mmv.org; details: human cytochrome; ref mmv.org; cited from earlier work
[6] = test system: CYP2D6; design: method as in mmv.org; details: human cytochrome; ref mmv.org; cited from earlier work
[7] = design: method as in mmv.org; details: ref mmv.org; cited from earlier work
[8] = test system: thioredoxin reductase; design: method as in PMID 18532880; details: cited from earlier work
[9] = Cytotoxic activity against murine macrophages (alamarBlue); details: mouse, J774A.1 murine macrophages
[10] = test system: L. amazonensis promastigotes; assay: Reactive oxygen species detection (CellROX Deep Red); type: cell-based, Leishmania amazonensis; details: IC90 of the compounds, 24 h
Description: After 30 min in darkness, the cells were observed under a fluorescent inverted microscope EVOS FL (Life Technologies, Thermo Fisher Scientific, Waltham, MA, USA). This staining was performed three times in independent tests. A positive control was performed as the internal control and corresponded to cells in which ROS production was achieved through the incubation of parasites with 600 µM hydrogen peroxide 30 min before detection.

[11] = test system: L. donovani promastigotes; design: method as in PMID 32280200; details: cited from earlier work
[12] = test system: Trypanosoma brucei brucei trypomastigotes; design: method as in PMID 28674055, PMID 19091562; details: cited from earlier work
[13] = test system: T. evansi trypomastigotes; design: method as in PMID 32112721; details: cited from earlier work
[14] = test system: NADPH oxidase 4; design: method as in PMID 20731357; details: cited from earlier work
[15] = test system: intracellular amastigotes of L. donovani; details: cited from earlier work
[16] = test system: T. cruzi intracellular amastigotes; design: method as in PMID 19091562; details: cited from earlier work
[17] = test system: Plasmodium falciparum; design: method as in PMID 19091562; details: cited from earlier work
[18] = test system: methionine aminopeptidase; design: method as in PMID 28674055; details: cited from earlier work
[19] = test system: promastigotes; details: read-out: IC50 against promastigotes, cited from earlier work
[20] = test system: intracellular amastigotes; details: read-out: IC50 against intracellular amastigotes, cited from earlier work

SMILES | IC50 [2] [µM] | IC50 ([1]; Leishmania amazonensis) [µM] | inhibition at 10 µM ([1]; Leishmania amazonensis) [%] | IC50 [1] [µM] | Selectivity Index (CC50/IC50), intracellular amastigote [2] | ATP levels [3] | Dead population (propidium iodide stained) [4] | Translocation of phosphatidylserine, part of the parasite population [4] | IC50 [5] [µM] | IC50 [6] [µM] | Glutathione Reactivity [7] | CC50 at 24 h [9] [µM] | Selectivity Index (CC50/IC50), promastigotes [1] | ROS accumulation (CellROX Deep Red fluorescence) [10] | Activity against Trypanosoma brucei brucei trypomastigotes [12] | further results
COc1cccc(-n2nnnc2S(=O)(=O)Cc2ccccc2)c1 [Compound 3, 5-(Benzylsulfonyl)-1-(3-methoxyphenyl)-1H-tetrazole] | 4.78 ± 1.2 | < 2 | 91 | 1.33 ± 0.12 | 1.68 | strong decrease | higher percentage | higher than 50% | > 20 | 15 | Medium | 8.02 ± 0.93 | – | – | – | Interference with thioredoxin reductase [8]: interferes
C[C@H](c1ccc2c(c1)CCCC2)N(C)c1ncc2c(N)nc(N)nc2n1 [Compound 5, 2-N-Methyl-2-N-[(1R)-1-(5,6,7,8-tetrahydronaphthalen-2-yl)ethyl]pyrimido [4,5-d]pyrimidine-2,5,7-triamine] | 1.25 ± 0.28 | 0.59 ± 0.08 | 90 | – | >8.00 | strong decrease | higher percentage | higher than 50% | > 20 | > 20 | Medium | > 10 | >17.06 | too damaged to contain the dye | activity | Anti-leishmanial activity (L. donovani) ([15]; stage not clearly stated for this compound): activity
c1ccc(-c2nc(NC3CCCCC3)cc(C3CC3)n2)nc1 [Compound 10, N-Cyclohexyl-6-cyclopropyl-2-pyridin-2-ylpyrimidin-4-amine] | 1.33 ± 0.36 | < 2 | 90 | 1.85 ± 0.39 | >7.52 | less pronounced decrease | – | – | > 20 | > 20 | No GSH adduct | > 10 | >5.40 | accumulation of ROS | activity | Activity against intracellular amastigotes of L. donovani [15]: activity; Activity against T. cruzi intracellular amastigotes [16]: active; Activity against Plasmodium falciparum [17]: active; Inhibition of methionine aminopeptidase [18]: inhibitor
CCCCCCCCCCCCCCCCOP(=O)([O-])OCC[N+](C)(C)C [Miltefosine] | – | – | – | – | 23.14 | – | – | – | – | – | – | 72.2 ± 3.06 | 11.14 | – | – | IC50 ([19]; ref Alonso et al. [15]): 7.8 µM; IC50 ([19]; ref Trinconi et al. [16]): 16.8 µM; IC50 ([20]; ref Alonso et al. [15]): 1.8 µM; IC50 ([20]; ref Trinconi et al. [16]): 2.6 µM

More lines, main results first:

IC50 [2] [µM] | SMILES | IC50 ([1]; Leishmania amazonensis) [µM] | inhibition at 10 µM ([1]; Leishmania amazonensis) [%] | IC50 [1] [µM] | Selectivity Index (CC50/IC50), intracellular amastigote [2] | ATP levels [3] | Dead population (propidium iodide stained) [4] | Translocation of phosphatidylserine, part of the parasite population [4] | IC50 [5] [µM] | IC50 [6] [µM] | Glutathione Reactivity [7] | CC50 at 24 h [9] [µM] | Selectivity Index (CC50/IC50), promastigotes [1] | ROS accumulation (CellROX Deep Red fluorescence) [10] | Activity against Trypanosoma brucei brucei trypomastigotes [12] | further results
6.9 ± 1.79 | O=C(Nc1ccc(N2CCNCC2)cc1)c1ccn2ncc(-c3cccc(Cl)c3)c2n1 [Compound 9, 3-(3-Chlorophenyl)-N-(4-piperazin-1-ylphenyl)pyrazolo [1,5-a]pyrimidine-5-carboxamide] | 0.77 ± 0.01 | 91 | – | 1.05 | – | – | – | > 20 | > 20 | No GSH adduct | 7.22 ± 2.36 | 9.35 | accumulation of ROS | activity | Activity against L. donovani promastigotes [11]: activity; Activity against T. evansi trypomastigotes [13]: active; Inhibition of NADPH oxidase 4 [14]: inhibits
2.5 ± 0.27 | CN1CCC(NCc2cccc(-c3ccc(S(=O)(=O)NCc4ccccc4)cc3)c2)CC1 [Compound 7, N-Benzyl-4-[3-[[(1-methylpiperidin-4-yl)amino]methyl]phenyl]benzenesulfonamide] | < 2 | 91 | 1.84 ± 0.14 | >4.00 | – | – | – | > 20 | > 20 | No GSH adduct | > 10 | >5.44 | accumulation of ROS | activity | –
